Legend:
HT1080 cells [1] = test: Phagokinetic track assay of HT1080 cell motility; type: cell-based; details: for ability of HT1080 cells to clear the surrounding surface / inhibitory effect on clearing of the surface: 22 hours; for ability of HT1080 cells to clear the surrounding surface: brightfield microscopy; for cell motility by swept area ratio (total swept area divided by cell area): dose response, HT1080 cells; for inhibitory effect on clearing of the surface: concentrations expected to block the relevant Ca^2+ channels
Method: HT1080 cells were incubated on gold particle-coated glass coverslips for 22 hours. […] A suspension of 5000 cells/ml was treated with or without Ca^2+ channel blockers then seeded onto the gold-coated coverslips. […] The tracks produced by the cells were viewed by brightfield microscopy with a 10× objective. Thirty randomly selected tracks were measured for each slide.
As cells migrated on these surfaces, the gold particles were cleared from regions of the surface and frequently picked up by the cells, making the cells appear darker and the surrounding area appear lighter when viewed by microscopy.
The size of HT1080 cells varies considerably. To evaluate cell motility, a swept area ratio was used, which calculates total swept area divided by cell area.

HT1080 cells [2] = test: Microfluorometry of Ca^2+ spikes/oscillations in indo-1 labeled HT1080 cells; details: concentration not given
HT1080 cells [3] = test: High speed microscopy of intracellular Ca^2+ waves in HT1080 cells; type: cell-based; details: high speed imaging
Method: Recent studies have shown that Ca^2+ spikes of polarized neutrophils and colorectal tumor cell transfectants are associated with certain intracellular Ca^2+ waves (Kindzelskii et al., J. Immunol. 170:64-72, 2003; Wang et al., J Immunol. 170:795-804, 2003). To visualize these waves, images must be collected using very short shutter speeds to avoid image blurring due to wave motion and indo-1 diffusion while the shutter is open. […]
High speed microscopy was performed using an Axiovert 135 fluorescene microscope with a quartz condenser, quartz objective, and an AttoArc mercury lamp (Zeiss). To detect fluorescence changes in the short wavelength emission region of indo-1, a 355HT15 exciter, a 390LP dichroic reflector, and a 405DF43 emission filter were used. […]
A region of high Ca concentration, seen in the microscope as a bright spot within the cell, was brought about by the local opening of Ca^2+ channels. As indo-1 has a relatively high affinity for Ca^2+ and a finite amount of time was required for the signaling apparatus to pump-down free cytosolic Ca^2+, a low intensity “tail” was observed next to the region of bright Ca^2+ indo-1 fluorescence (i.e., the Ca^2+ wave has a low intensity tail on the side opposite to the direction of wave motion).

HT1080 cells [4] = test: Biocoat Matrigel invasion chamber assay of HT1080 cell invasion; type: cell-based; details: 22 hour incubation; for number of migrating cells: control cells approximately 80; for lowest dose that exhibits maximal inhibition of invasiveness: HT1080 cells; for HT1080 cell transmigration: dose response; for effect on cell invasiveness: pharmacologically appropriate doses
HT1080 cells [5] = test: T-type channel expression and cell shape of mibefradil treated HT1080 cells
Text: Thus, it was necessary to determine if blockade of T-type calcium channels on HT1080 cells caused morphological transformation.

SMILES	propagating Ca^2+ wave after addition (HT1080 cells [3])	number of migrating cells (HT1080 cells [4])	lowest dose that exhibits maximal inhibition of invasiveness (HT1080 cells [4]) [µM]	HT1080 cell transmigration (HT1080 cells [4])	ability of HT1080 cells to clear the surrounding surface (HT1080 cells [1]; 1.5 μM)	cell motility by swept area ratio (total swept area divided by cell area) (HT1080 cells [1])	effect on cell invasiveness (HT1080 cells [4])	inhibitory effect on clearing of the surface (HT1080 cells [1])	also measured
NC(=O)c1nnn(Cc2cc(Cl)c(C(=O)c3ccc(Cl)cc3)c(Cl)c2)c1N [CAI, Carboxyamidotriazole]	–	–	–	–	–	–	–	–	ability of HT1080 cells to clear the surrounding surface (HT1080 cells [1]; 10 μM): significantly decreased
[Gd+3] [Gd^3+, gadolinium (Gd^3+)]	a Ca^2+ wave was observed in cells before, but not after addition	approximately 22	20	inhibited HT1080 cell transmigration in a dose-dependent fashion	significantly decreased	significantly inhibited cell motility in a dose-dependent manner	–	–	effect on Ca^2+ spikes (HT1080 cells [2]): Ca^2+ spikes diminished then disappeared; HT1080 movement (HT1080 cells [1]; Six μM): almost completely abolished
COc1ccc(CCCOC(Cn2ccnc2)c2ccc(OC)cc2)cc1 (stereo not shown) [SKF96365]	–	–	–	–	–	–	no effect	no inhibitory effect was observed	–
COc1ccc([C@@H]2Sc3ccccc3N(CCN(C)C)C(=O)[C@@H]2OC(C)=O)cc1 [diltiazem]	–	–	–	–	–	–	no effect	no inhibitory effect was observed	–
COCC(=O)O[C@]1(CCN(C)CCCc2nc3ccccc3[nH]2)CCc2cc(F)ccc2[C@@H]1C(C)C [mibefradil]	no propagating Ca^2+ wave was found	approximately 25	5	inhibited HT1080 cell transmigration in a dose-dependent fashion	significantly decreased	significantly inhibited cell motility in a dose-dependent manner	–	–	decrease of cell-swept area compared with control treated cells (HT1080 cells [1]; 5 μM): approximately 90%; cell shape / morphological transformation (HT1080 cells [5]): maintain their rounded shape
COC(=O)C1=C(C)NC(C)=C(C(=O)OCCN(C)Cc2ccccc2)C1c1cccc([N+](=O)[O-])c1 (stereo not shown) [nicardipine]	–	–	–	–	–	–	no effect	–	–

From patent US20060003020A1, “Anti-metastatic ability of mibefradil and gadolinium” (THE REGENTS OF THE UNIVERSITY OF MICHIGAN, priority 2004, published 2006)
